In paper PMC8426238, “Synthesis and preclinical evaluation of [^11C]MTP38 as a novel PET ligand for phosphodiesterase 7 in the brain” (European Journal of Nuclear Medicine and Molecular Imaging, 2021):

Tests used:
PDE7 [1] = test: In vitro autoradiography of rat brain sections with [^11C]MTP38; assay type: binding, Sprague-Dawley rats
Description: (§1) In vitro autoradiography was performed using 20-μm-thick fresh-frozen brain sections derived from Sprague-Dawley rats and rhesus monkeys. The sections were preincubated for 10 min in 50 mM Tris-HCl buffer (pH 7.4) at room temperature. These samples were then incubated for 60 min at room temperature in fresh buffer containing [^11C]MTP38 (2 nM) with or without unlabeled MTP38 (10 μM), MTP-X (4 μM), or MT-3014 (40 nM). The concentrations of MTP-X and MT-3014 were more than 400-fold of reported IC50 values of these agents. After the incubation, the brain sections were immersed twice in cold buffer for 3 min, dipped in cold distilled water for 10 s, and dried with warm airflow. Then the sections were contacted with imaging plates (BAS-MS2025, Fujifilm, Tokyo, Japan) for 60 min. The imaging plates were scanned with an imaging plate reader (BAS5000, Fujifilm, Tokyo, Japan), and the images were analyzed with the MultiGuage software (ver. 3.0, Fujifilm, Tokyo, Japan).

PDE7 [2] = test system: PDE7; set-up: method as in PMID 26330158; details: living rodent brains; cited from earlier work
[3] = Radiometabolite analysis of arterial plasma; assay type: in vivo, rhesus monkeys; details: monkey; 90 min after injection
Description: (§2) PET scans for monkeys at baseline and following pretreatment with unlabeled MTP38, and 3, 10, 30 mg/kg of MTP-X were performed along with arterial blood sampling to obtain a metabolite-corrected input function. In total, 22 arterial blood samples were collected manually with heparinized syringes via a saphenous artery contralateral to the radioligand injection. Sampling was performed at 10, 20, 30, 40, 50, 60, 75, 90, 105, 120, 150, 180, and 210 s and at 4, 5, 10, 20, 30, 45, 60, 75, and 90 min after radioligand injection. Blood samples were then placed on ice and divided into two aliquots, one of which was centrifuged with a refrigerated centrifuge (15,000×g, 3 min, 4 °C) to obtain plasma.
Radioactivity in blood and plasma was measured with an auto-gamma counter (wizard 2480, PerkinElmer, Waltham, MA, USA). […] An aliquot of supernatant (< 1 mL) was injected into an HPLC system (JASCO, Tokyo, Japan) equipped with a radioactivity detector (column: CAPCELL PAK AQ, 5 μm, 10 × 250 mm; column temperature: room temperature; mobile phase: 45% CH3CN; flow rate: 6.0 mL/min). The fraction of the parent [^11C]MTP38 was calculated as a ratio of the peak area of MTP38 to the total area of peaks found on the radiochromatograms. Then, an arterial input function was determined by quantifying the metabolite-corrected arterial plasma radioactivity concentration.

PDE7 [4] = test: In vitro autoradiography of monkey brain sections with [^11C]MTP38; assay type: binding, rhesus monkeys; details: 2 nM
Description: as §1

PDE7 [5] = test: PET imaging in monkeys with [^11C]MTP38; assay type: in vivo, rhesus monkeys; details: for Striatal BPND: MRTMo, cerebellar reference
Description: Each monkey underwent multiple PET scans with intervals longer than 2 weeks. The monkeys were given an intramuscular injection of 0.04 mg/kg of atropine sulfate at 1.5 h before radioligand injection. They were subsequently anesthetized with an intramuscular injection of ketamine (5 mg/kg) and xylazine (0.5 mg/kg), intubated, and kept anesthetized with 1–2% isoflurane. Heart rate, electrocardiogram, body temperature, blood oxygen saturation level, and end-tidal CO2 were monitored during the PET scan. The monkeys were placed on a bed in a supine position, and the head was fixed at the center of the field of view of a microPET scanner Focus220. A transmission scan was performed for about 20 min using a ^68Ge-^68Ga point source. A 90-min list-mode data acquisition was started simultaneously with intravenous administration of [^11C]MTP38 via a saphenous vein cannula. All list-mode data were sorted into 3D sinograms, which were then Fourier-rebinned into 2D sinograms (frames: 10 s × 6, 30 s × 8, 1 min × 5, 2 min × 10, and 5 min × 12). The images were corrected for attenuation and reconstructed with a filtered back-projection algorithm using a Hanning filter with a cut-off at the Nyquist frequency (0.5 mm^−1).
Along with baseline scans, we carried out blocking PET experiments according to the following pretreatment protocols: (1) unlabeled MTP38 was administered as an intravenous bolus (0.075 mg/kg) at 1 h before radioligand injection followed by continuous infusion at a rate of 0.3 mg/kg/h until the end of the PET scan, and (2) MTP-X (0.3–30 mg/kg) was administered orally at 2 or 6 h before radioligand injection.
as §2
PET images were co-registered onto the individual MR images. ROIs were placed on the prefrontal and medial frontal cortices, hippocampus, amygdala, striatum (caudate + putamen), nucleus accumbens, thalamus, cerebellum (gray matter), and brainstem. TACs in the baseline and blockade experiments were generated for each ROI.
Regional TACs were examined by several analytical methods to calculate the regional total distribution volume (VT), which represents the sum of non-specific and specific radioligand binding. Compartment model (1- or 2-tissue) and Logan’s graphical analyses were employed for describing the radioligand kinetics in the brain. The fractional blood volume was fixed at 0.05. For compartment model analyses, an optimal model was chosen on the basis of Akaike’s information criterion (AIC) and model selection criterion (MSC). For graphical analyses, an equilibration time t* was determined so that by the maximum error from the regression within the linear segment was considered to be 10% for each TAC. Time stability of VT was investigated by truncating the data duration stepwise from 90 min to 30 min. The VT values with or without pretreatment with a blocker were then compared. We also validated the use of the cerebellum as a reference tissue by this comparison, in addition to the autoradiographic findings, in monkey brain slices. The non-displaceable binding potential (BPND) was calculated by the original multilinear reference tissue model (MRTMO). t* was determined in the same manner as Logan’s graphical analysis. […]

PDE7 [6] = test: PET imaging in rats with [^11C]MTP38; assay type: in vivo, Wistar rats
Description: Each rat was scanned multiple times with a shortest interval of 1 month. Rats were anesthetized with isoflurane (3% for induction and 2% for maintenance) throughout the experiment. The tail vein was cannulated for radioligand injection. Body temperature was maintained at around 37 °C using a heating pad. The head of the rat was fixed at the center of the field of view of an animal PET scanner (microPET Focus220, Siemens Medical Solutions, Malvern, USA). A 90-min list-mode data acquisition was started simultaneously with intravenous administration of [^11C]MTP38. The list-mode data were sorted into 3D sinograms, which were then Fourier-rebinned into 2D sinograms (frames: 10 s × 6, 30 s × 8, 1 min × 5, 2 min × 10, and 5 min × 12). The sinograms were reconstructed with a filtered back-projection algorithm using a Hanning filter with a cut-off at the Nyquist frequency (0.5 mm^−1).
Along with baseline scans, we conducted blockade PET experiments according to the following pretreatment protocols: (1) unlabeled MTP38 (0.5 mg/kg) was administered intravenously at 2 min before radioligand injection, and (2) MTP-X (100 mg/kg) was administered orally at 1 h before radioligand injection.
PET images were co-registered manually onto the magnetic resonance (MR) template image. Details of co-registration were described elsewhere. Regions of interest (ROIs) were placed on the striatum as a target region and on the cerebellum (gray matter) as a reference region according to the expression of PDE7B mRNA in the rat brain [6], and time-activity curves (TACs) were generated for each ROI. Radioactivity in the brain was normalized with injected radioactivity and body weight, and expressed as standardized uptake value (SUV). Then the SUV ratio between the striatum and cerebellum was obtained to estimate the radioligand binding in the target region in baseline and blockade experiments.

[7] = monkey, baseline, Logan's graphical analysis, means of two animals

## Cc1nc2ccc(F)cc2nc1-c1cc2nc(N3CC[C@@H](F)C3)cc(NCC(C)(C)O)n2n1 [MT-3014, reference compound]
PDE7 [1]; [^11C]MTP38 2 nM, unlabeled MTP38 10 μM, MTP-X 4 μM, MT-3014 40 nM
  effect of blocker on striatal radioactivity of [^11C]MTP38: did not change the radioligand binding

## O=C1Nc2c(Cl)ccc(OCC[18F])c2C2(CCCCC2)N1 [[^18F]MICA-003]
PDE7 [2]
  in vivo metabolism: rapid metabolic conversion to a brain-entering radiomolecule

## C[C@@H]1CC[C@H](C)N(c2nnc3c(N)ncc([11C]#N)n23)C1 [[^11C]MTP38]
PDE7 [1]; 2 nM
  radioligand reactivity in the striatum: high radioligand reactivity in the striatum
[3]
  fraction of unmetabolized [^11C]MTP38 of total radioactivity in plasma: 27.2%
PDE7 [4]
  radioligand reactivity in the striatum: high radioligand reactivity in the striatum
PDE7 [5]; monkey #1, baseline
  Striatal BPND: 0.409
PDE7 [5]; monkey #2, baseline
  Striatal BPND: 0.287
PDE7 [5]; [7]
  Regional VT, AMY (amygdala): 2.50 mL/cm^3
  Regional VT, BS (brainstem): 3.13 mL/cm^3
  Regional VT, CB (cerebellum): 2.69 mL/cm^3
  Regional VT, HIP (hippocampus): 2.38 mL/cm^3
  Regional VT, MFC (medial frontal cortex): 3.27 mL/cm^3
  Regional VT, NAc (nucleus accumbens): 2.97 mL/cm^3
  Regional VT, PFC (prefrontal cortex): 2.93 mL/cm^3
  Regional VT, STR (striatum): 3.59 mL/cm^3
  Regional VT, THA (thalamus): 3.03 mL/cm^3
PDE7 [5]; monkey, some ROIs including the striatum, model failed to estimate VT
  k3 (2-tissue compartment model): < 0.0001 min⁻¹
PDE7 [5]; monkeys, iv
  maximal SUV in brain: ~5
  time of brain radioactivity peak after injection: 3 to 4 min
PDE7 [6]; baseline, plateau from 5 min
  striatum-to-cerebellum ratio of SUV: ~1.5
PDE7 [6]; iv, 90 min
  SUV in the striatum and cerebellum at 90 min: below 1.0
PDE7 [6]; iv, baseline
  peak SUV in the striatum and cerebellum: exceeding 4.0
PDE7 [6]; iv, striatum and cerebellum
  time of SUV peak after injection: ≤ 1 min
